Laboratory results as given in patent US20250270227A1, “CAMPTOTHECIN DERIVATIVE, AND PHARMACEUTICAL COMPOSITION AND USE THEREOF” (SIMCERE ZAIMING PHARMACEUTICAL CO., LTD., priority 2021, published 2025).
Like-named read-outs stand apart in the source and are kept apart here.

Key:
[1] = Metabolic stability in liver microsomes; type: in vitro ADME, human; details: for half-life at 1 μM: human, microsomes
Experimental: The metabolic stability of the compounds of the present disclosure in liver microsomes was determined by the following experimental method.
• 1. Human liver microsomes (Corning 452117), Beagle dog liver microsomes (XENOTECH D1000), SD rat liver microsomes (XENOTECH R1000) and CD-1 mouse liver microsomes (XENOTECH M1000) • 2. Na2HPO4 (Tianjin Guangfu Fine Chemical Research Institute 20180130) • 3. KH2PO4 (Tianjin Guangfu Fine Chemical Research Institute 20180920) • 4. MgCl2 (Tianjin Guangfu Fine Chemical Research Institute 20191216) • 5. NADPH (Solarbio 1216C022) • 6. Positive control compound verapamil (Sigma MKBV4993V) • 7. AB Sciex API4000 liquid chromatography-mass spectrometry
• 1. Preparation of 100 mM phosphate buffered saline (PBS): 7.098 g of Na2HPO4 was weighed, 500 mL of pure water was added and subjected to ultrasonic dissolution to obtain solution A. 3.400 g of KH2PO4 was weighed, 250 mL of pure water was added and subjected to ultrasonic dissolution to obtain solution B. Solution A was placed on a stirrer and solution B was slowly added until the pH value reached 7.4 to prepare 100 mM PBS buffer. • 2. Preparation of reaction system
The reaction system was prepared according to the following table:
• 3. The reaction system was placed in a 37° C. water bath and pre-incubated for 10 min. 40 μL of 10 mM NADPH solution (NADPH was dissolved in 100 mM phosphate buffer) was added to the reaction system with the final concentration of NADPH being 1 mM. 40 μL of phosphate buffer was used instead of NADPH solution as negative control. The role of the negative control was to exclude the effect of the chemical stability of the compounds themselves. • 4. 4 μL of 100 μM compound of the present disclosure and the positive control compound verapamil were added to the reaction system to initiate the reaction, with the final concentration of the compound being 1 μM. • 5. After thorough mixing on a vortex oscillator, 50 μL of the incubated sample was taken out at 0.5 min, 15 min, 30 min, 45 min and 60 min, respectively, and the reaction was stopped with 200 μL of glacial acetonitrile containing internal standard. The sample was centrifuged at 3220 g for 45 min. […]
All the data was calculated by the Microsoft Excel software. The peak area was detected by extracting the ion chromatogram. The in vitro half-life (t1/2) of the compound was determined by performing linear fitting of the natural logarithm of elimination percent of the compound and time.
The in vitro half-life (t1/2) was calculated by means of the slope k: […]
The in vitro intrinsic clearance (unit: μL/min/mg protein) was calculated using the following equation: […]

[2] = molecular target: hERG potassium ion channel (Homo sapiens (Human), UniProt Q12809); assay: hERG inhibitory activity (automated patch clamp, CHO cell line stably expressing hERG); type: cell-based
Experimental: The inhibition of hERG activity by the compounds of the present disclosure was determined by the following experimental method.
A CHO cell line stably expressing hERG ion channel was purchased from B′SYS GmbH (Switzerland). The cells were cultured in F-12 (HAM) medium containing 10% FBS buffer, 100 U/mL penicillin-streptomycin, 100 μg/mL hygromycin and 100 μg/mL G418. Trypsin substitute TrypLE™ Express was used for digestion and passage, passaging three times per week and maintaining about 80% confluence.
Iii. Preparation of Intracellular/Extracellular Fluid and Preparation of Solution of Compound to be Tested
• 1) NMDG 60 standard extracellular fluid: 80 mM sodium chloride, 60 mM NMDG, 4 mM potassium chloride, 2 mM calcium chloride, 1 mM magnesium chloride, 5 mM polyglucose, 10 mM HEPES, pH adjusted to 7.4 with HCl, osmotic pressure 289 mOsm/kg; • 2) NMDG 60 cell sealing solution: 80 mM sodium chloride, 60 mM NMDG, 4 mM potassium chloride, 10 mM calcium chloride, 1 mM magnesium chloride, 5 mM polyglucose, 10 mM HEPES, pH adjusted to 7.4 with HCl, osmotic pressure 313 mOsm/kg; • 3) Chip filling solution: 140 mM sodium chloride, 4 mM potassium chloride, 5 mM polyglucose, 10 mM HEPES, pH adjusted to 7.4 with NaOH, osmotic pressure 289 mOsm/kg; • 4) Standard extracellular fluid: 140 mM sodium chloride, 4 mM potassium chloride, 2 mM calcium chloride, 1 mM magnesium chloride, 5 mM polyglucose, 10 mM HEPES, pH adjusted to 7.4 with NaOH, osmotic pressure 298 mOsm/kg.
KF110 intracellular fluid: 10 mM EGTA, 10 mM HEPES, 10 mM potassium chloride, 10 mM sodium chloride, 110 mM potassium fluoride, pH adjusted to 7.2 with KOH, osmotic pressure greater than 280 mOsm/kg.
• 1) The compound to be tested was dissolved in DMSO and prepared into a stock solution with a final concentration of 10 mM. • 2) The stock solution was subjected to gradient dilution with DMSO as a solvent at a ratio of 1:3 into solutions with other three intermediate concentrations (mM): 3.33, 1.11 and 0.37, respectively. • 3) Before the start of the experiment, the gradient solution of the compound to be tested was diluted again with the extracellular fluid according to a ratio of 1:500 into a series of working solutions with final concentrations of: 20, 6.66, 2.22 and 0.74 (μM), respectively, while the 60 μM working solution was diluted from 10 mM stock solution according to a ratio of 3:500. […]

[3] = pH 7.4, human liver microsomes 0.5 mg/mL, 1 μM compound, 1 mM NADPH, 37° C., read-out: Stability in human liver microsomes t1/2

hERG potassium ion channel, sequence (Q12809 whole entry): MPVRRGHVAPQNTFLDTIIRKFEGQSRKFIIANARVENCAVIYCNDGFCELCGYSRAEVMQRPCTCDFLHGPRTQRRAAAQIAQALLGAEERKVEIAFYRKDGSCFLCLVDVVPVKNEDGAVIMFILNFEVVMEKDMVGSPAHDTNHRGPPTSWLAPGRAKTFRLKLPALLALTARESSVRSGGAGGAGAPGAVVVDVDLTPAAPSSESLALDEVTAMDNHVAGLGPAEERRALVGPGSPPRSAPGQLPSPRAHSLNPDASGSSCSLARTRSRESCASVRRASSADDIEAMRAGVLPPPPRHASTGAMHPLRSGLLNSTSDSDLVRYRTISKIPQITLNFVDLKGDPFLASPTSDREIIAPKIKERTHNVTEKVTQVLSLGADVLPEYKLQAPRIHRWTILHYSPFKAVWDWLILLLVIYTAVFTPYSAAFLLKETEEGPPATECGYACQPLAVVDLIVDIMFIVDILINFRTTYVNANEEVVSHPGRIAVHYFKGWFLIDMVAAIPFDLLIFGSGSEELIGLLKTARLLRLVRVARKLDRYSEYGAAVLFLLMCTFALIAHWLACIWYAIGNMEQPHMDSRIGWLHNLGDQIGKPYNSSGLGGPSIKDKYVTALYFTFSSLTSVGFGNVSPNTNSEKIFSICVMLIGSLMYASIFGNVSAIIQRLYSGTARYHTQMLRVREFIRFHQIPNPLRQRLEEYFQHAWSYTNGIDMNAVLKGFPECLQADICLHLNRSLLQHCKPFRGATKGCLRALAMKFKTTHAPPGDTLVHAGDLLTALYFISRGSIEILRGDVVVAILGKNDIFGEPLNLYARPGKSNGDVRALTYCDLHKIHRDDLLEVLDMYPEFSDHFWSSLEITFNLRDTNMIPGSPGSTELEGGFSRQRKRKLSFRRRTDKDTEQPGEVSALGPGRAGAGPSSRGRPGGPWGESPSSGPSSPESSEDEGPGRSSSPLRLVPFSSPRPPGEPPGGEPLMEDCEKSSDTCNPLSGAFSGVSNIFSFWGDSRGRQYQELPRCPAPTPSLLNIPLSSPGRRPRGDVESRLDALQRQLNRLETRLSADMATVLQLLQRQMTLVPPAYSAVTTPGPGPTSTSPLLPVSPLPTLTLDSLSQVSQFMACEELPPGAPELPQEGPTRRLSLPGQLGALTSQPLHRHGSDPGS

| Compound | half-life at 1 μM [1, 3] | IC50 [2] | Stability in human liver microsomes t1/2 ([1]; human liver microsomes 0.5 mg/mL, 1 μM compound, 1 mM NADPH, 37° C.) | IC50 ([2]; read-out: hERG potassium ion channel inhibitory activity IC50, CHO-hERG, SyncroPatch 384i, 0.37-30 μM) | half-life at 1 μM ([1]; pH 7.4) |
| --- | --- | --- | --- | --- | --- |
| CC[C@@]1(O)C(=O)OCc2c1cc1n(c2=O)Cc2c-1nc1cc3c(cc1c2CNC(=O)C(O)C1CC1)OCO3 (single isomer, unassigned) [Compound 14-P1] | 1.1 h | > 30 µM |  |  |  |
| CC[C@@]1(O)C(=O)OCc2c1cc1n(c2=O)Cc2c-1nc1cc3c(cc1c2CNC(=O)C(O)C1CC1)OCO3 (single isomer, unassigned) [Compound 14-P2] |  |  | 0.835 h | > 30 µM |  |
| CC[C@@]1(O)C(=O)OCc2c1cc1n(c2=O)Cc2c-1nc1cc3c(c(F)c1c2CNC(=O)[C@@H](O)C1CC1)OCO3 (single isomer, unassigned) [Compound 37-P1] |  | > 30 µM |  |  | 1.75 h |
| [2H]C1([2H])Oc2cc3nc4c(c(CNC(=O)C(O)C5CC5)c3cc2O1)Cn1c-4cc2c(c1=O)COC(=O)[C@]2(O)CC (stereo partly drawn) [Compound 39, 2-cyclopropyl-N-(((S)-7-ethyl-7-hydroxy-8,11-dioxo-7,8,11,13-tetrahydro-10H-[1,3]dioxolo[4,5-g]pyrano[3′,4′:6,7]indolizino[1,2-b]quinolin-14-yl-2,2-d2)methyl)-2-hydroxyacetamide] | 4.01 h | > 30 µM |  |  |  |
